The results in this text go back to the COVID Moonshot data (paper PMC7615835).

Molecules are shown by their SMILES. Several values for one entry are separate records, joined by “and”; a condition that tells them apart may be missing. Equal entries are not always repeated.

This experiment concerns the target SARS-CoV-2 Main Protease (SARS-CoV-2) (UniProt P0DTD1).
Regarding `O=C(O)CN1C(=O)C(=O)c2cc([N+](=O)[O-])ccc21`, the IC50 (usually the concentration needed to halve the response being measured) is above 99.5 µM.

As for `CN(C)CC1(C(=O)Nc2cncc3ccccc23)CCOc2ccc(Cl)cc21` (stereo not given), the IC50 amounted to 11.5 µM.

As to `O=C(CN1CC(C(=O)Nc2cncc3ccccc23)c2cc(Cl)ccc2C1=O)NCC1CC1` (stereo not given), the IC50 was 0.0726 µM and 0.122 µM.

Molecule `O=C(Cc1cc(Cl)cc(Nc2cccc3ccc(O)cc23)c1)Nc1cncc2ccccc12` yielded an IC50 of 3.2 µM.

On to `O=C(Cc1cc(Cl)cc(Nc2n[nH]cc2Br)c1)Nc1cncc2ccccc12`, for which the IC50 stood at 5.04 µM. Against the preceding molecule, the IC50 is about 1.6-fold higher.

Consider `NCc1cn(CC(=O)N(Cc2cscn2)c2ccc(-c3ccccc3)nc2)nn1`, for which the IC50 was above 99.5 µM.

The molecule `Cc1ccc(-n2c(C)c(C)n3c4c(=O)n(CCCO)c(=O)n(C)c4nc23)cc1Cl` returned an IC50 above 99.5 µM.

Consider `C[C@H](N)C(=O)N[C@@H](CCC(N)=O)C(=O)O` (stereo in doubt), for which the IC50 is above 99 µM.

As to `Cc1ccc(-n2ncc3c(=O)n(CC(N)=O)cnc32)cc1C`, the IC50 is above 99.5 µM.

The molecule `O=C(Cc1cc(Cl)cc(N2CCC(Oc3ccccc3)CC2)c1)Nc1cncc2ccccc12` had an IC50 of 1.73 µM.

In turn, `CCC(=O)Nc1ccc(N(Cc2cscn2)C(=O)Cn2nnc3ccccc32)cc1` returned an IC50 of 25 µM.

In turn, `COc1ccc(N(C(=O)c2cnc[nH]2)C(C(=O)NCCc2cccc(F)c2)c2cccnc2)cc1` (stereo not given) displayed an IC50 of 93.7 µM.

Turning to `O=C(CCl)N1CCN(Cc2cc(O)cc(Cl)c2)CC1`, the IC50 turned out to be 12.9 µM.

In the case of `CC(C)(C)c1ccc(O)c(Nc2cc(Cl)cc(CC(=O)Nc3cncc4ccccc34)c2)c1`, the IC50 worked out at 6.5 µM.

The molecule `CC(C)(C)c1ccc(N(C(=O)c2cc(C3(O)COC3)on2)C(C(=O)NCCc2cccc(F)c2)c2cccnc2)cc1` (stereo not given) displayed an IC50 of 26.2 µM.

`COc1cc(Cl)cc(CC(=O)Nc2cnccc2C)c1` displayed an IC50 of 36.8 µM.

The molecule `O=C(NCCc1cccc(F)c1)C(c1cccnc1)N(C(=O)c1cnc[nH]1)c1ccc(OC(F)F)cc1` (stereo not given) displayed an IC50 of 22.1 µM.

With `COCc1csc(N(C(=O)c2cocn2)C(C(=O)NCCc2cccc(F)c2)c2cccnc2)n1` (stereo not given), the IC50 is above 99.5 µM.

With `O=C(CC1(C(=O)Nc2cncc3ccccc23)CCOc2ccc(Cl)cc21)N1C[C@@H]2C[C@H]1CN2CC(F)F` (stereo in doubt), the IC50 stood at 3.78 µM.

Turning to `Cc1ccncc1NC(=O)Cc1cc(Cl)cc(OCc2n[nH]c3ccccc23)c1`, the 50% inhibitory concentration (IC50) is above 99.5 µM.

Turning to `CC(C)(C)c1ccc(N(C(=O)c2ccco2)C(C(=O)NCCN2CCOCC2)c2cccnc2)cc1` (stereo not given), the IC50 amounted to 2.19 µM. This counts as single-digit micromolar.

`CC(C)(C)c1ccc(N(C(=O)c2[nH]nc(O)c2CCO)C(C(=O)NCCc2cccc(F)c2)c2cccnc2)cc1` (stereo not given) had an IC50 above 99.5 µM.

As for `CNC(=O)C1(N2Cc3ccc(Cl)cc3C3(CCN(c4cncc5ccccc45)C3=O)C2)CC1` (stereo not given), the 50% inhibitory concentration (IC50) is 0.0732 µM.

In turn, `CS(=O)(=O)c1ccc2c(NC(=O)C3CN(CC(=O)NC4CC4)C(=O)c4ccc(Cl)cc43)cncc2c1` (stereo not given) returned a concentration for half-maximal inhibition (IC50) of 0.214 µM.

Regarding `CNC(=O)CN1C[C@@H](C(=O)Nc2cncc3cc(Cl)ccc23)c2cc(Cl)ccc2C1=O` (stereo in doubt), the IC50 was 0.939 µM.

Turning to `Cc1cc(C(F)(F)F)nc2c1c(N)nn2C(=O)C1CCOc2ccc(Cl)cc21` (stereo not given), the IC50 is above 99.5 µM.

`CC(C)(C)c1ccc(N(C(=O)c2ccco2)C(C(=O)NCCc2cccc(F)c2)c2coc3ccccc23)cc1` (stereo not given): the IC50 is above 99.5 µM.

Consider `N#CC1(CS(=O)(=O)N2Cc3ccc(Cl)cc3C3(CCN(c4cncc5cccc(Cl)c45)C3=O)C2)CC1` (stereo not given), for which the IC50 was 7.79 µM. This lies in the single-digit micromolar range.

In turn, `Cc1nc(Br)ccc1Nc1cc(Cl)cc(CC(=O)Nc2cncc3ccccc23)c1` registered an IC50 of 2.82 µM.

For the molecule `O=C(CCl)N1CCN(S(=O)(=O)c2cccc(F)c2)CC1`, the IC50 is 4.1 µM and 5.05 µM and 2.38 µM.

With `CCOC(=O)c1cc(-c2cc(Cl)cc(CC(=O)Nc3cnccc3C)c2)n[nH]1`, the IC50 was above 99.5 µM.

As for `COCCN1CCc2ccc(Cl)cc2C1C(=O)Nc1cncc2ccccc12` (stereo not given), the IC50 was 1.88 µM.

Consider `O=C(Cc1cc(Cl)cc(OC2CC(=O)N2)c1)Nc1cncc2ccccc12` (stereo not given), for which the IC50 was 0.274 µM and 0.15 µM.

For `COc1ccc2cncc(NC(=O)[C@@H]3CCNc4cc(Cl)c(Cl)cc43)c2c1` (stereo in doubt), the IC50 came to 27.2 µM. In other words, the double-digit micromolar range.

As for `CN(C)c1ccc(N(Cc2ccccc2)C(=O)Cn2nnc3ccccc32)cc1`, the IC50 came out at 5.05 µM. This IC50 lies about 5.4-fold lower than the previous one.

In turn, `O=C(Cc1cc(Cl)cc(Nc2c(Cl)cccc2[N+](=O)[O-])c1)Nc1cncc2ccccc12` showed a half-inhibitory concentration (IC50) of 2.37 µM.

Molecule `CN1C(=O)c2ccc(Nc3cc(Cl)cc(CC(=O)Nc4cncc5ccccc45)c3)cc2C1=O` showed an IC50 of 1.66 µM.

In turn, `O=C(NCCc1cccc(F)c1)C(c1cccnc1)N(C(=O)c1cocn1)c1ccc2c(c1)CCOC2` (stereo not given) registered an IC50 above 99.5 µM.

On to `CCOC(=O)c1ccc(NC(=O)CC2SC(=O)N(c3ccccc3)C2=O)cc1` (stereo not given), for which the IC50 was found to be 2.4 µM.

`Cn1cc(C(=O)N(c2ccc(C(C)(C)C)cc2)C(C(=O)NCCc2cccc(F)c2)c2cccnc2)n(C)c1=O` (stereo not given): the half-maximal inhibitory concentration (IC50) was above 99.5 µM.

The molecule `N#Cc1ccc(Nc2cc(Cl)cc(CC(=O)Nc3cncc4ccccc34)c2)c(I)c1` gave an IC50 of 1.62 µM.

Take `CCS(=O)(=O)Nc1ccc2cncc(NC(=O)Cc3cccc(Cl)c3)c2c1`: the IC50 stood at 1.02 µM.

`COc1ccc(-c2cc(N)n(-c3cc(Cl)cc(CC(=O)Nc4cncc5ccccc45)c3)n2)cc1`: the IC50 amounted to 2.71 µM. Against the preceding molecule, the IC50 is about 2.7-fold higher.

For the molecule `O=C(Cc1cccc(Cl)c1)Nc1cnc2n1CCCC2`, the IC50 was determined as 93.8 µM.

In turn, `O=C(Nc1ccccc1)[C@@H]1CN(C(=O)CCl)CCN1S(=O)(=O)c1ccsc1` (stereo in doubt) returned an IC50 of 0.716 µM.

Take `O=C(Cc1cc(Cl)cc(Nc2ccc(F)cc2C(F)(F)F)c1)Nc1cncc2ccccc12`: the IC50 was determined as 1.56 µM. This IC50 is about 2.2-fold higher than that of the molecule before.

Molecule `CN(C)C(=O)CNC(=O)C(c1cccnc1)N(C(=O)c1cocn1)c1ccc(C(C)(C)C)cc1` (stereo not given) showed an IC50 of 29.2 µM.

`CCOC1CC2(C1)CC2N(C(=O)c1ccco1)C(C(=O)NCCc1cccc(F)c1)c1cccnc1` (stereo not given) returned an IC50 above 99.5 µM.

Molecule `O=C(NCCc1cccc(F)c1)C(c1cccnc1)N(C(=O)c1cocn1)c1cnn(-c2ccccc2)c1` (stereo not given) registered an IC50 of 2.95 µM. That is a single-digit micromolar value.

As for `CC(C)(C)c1ccc(N(C(=O)c2cc(O)cc(=O)o2)C(C(=O)NCCc2cccc(F)c2)c2cccnc2)cc1` (stereo not given), the IC50 is above 99.5 µM.

Take `O=C(Cc1cc(Cl)cc(Nc2cnc(Br)cn2)c1)Nc1cncc2ccccc12`: the IC50 was 2.07 µM.

On to `COc1ccccc1OCCNC(=O)c1cc(=O)ccn1C`, for which the IC50 was above 99.5 µM.

With `C=CC(=O)N(c1ccc(C(C)(C)C)cc1)C(C(=O)Nc1ccc(OC)cc1C)c1cccnc1` (stereo not given), the IC50 is above 99 µM.

The molecule `N#Cc1ccc(N(C(=O)c2ccco2)C(C(=O)NCCc2cccc(F)c2)c2cccnc2)cc1` (stereo not given) yielded an IC50 of 10.4 µM.

`O=C(Cc1cc(Cl)cc(Nc2ccc(Br)c(C(F)(F)F)c2)c1)Nc1cncc2ccccc12` came in with a half-maximal inhibitory concentration (IC50) of 2.31 µM.

Regarding `O=C(Cc1cc(Cl)cc2c1OCC2)Nc1cncc2ccccc12`, the IC50 was 1.13 µM and 1.87 µM.

`Nc1nn(C(=O)Cc2cccc(Cl)c2)c2ccccc12` showed a 50% inhibitory concentration (IC50) above 99.5 µM.

In the case of `COc1ncc(Br)cc1Nc1cc(Cl)cc(CC(=O)Nc2cncc3ccccc23)c1`, the IC50 came out at 0.681 µM.

`Cc1cccc(C)c1N(C(=O)CN1CCNCC1)c1cc(Cl)cc(CC(=O)Nc2cncc3ccccc23)c1` had an IC50 of 2.74 µM.

In turn, `Cc1cc(C)[n+](C)c(C#N)n1` showed a concentration for half-maximal inhibition (IC50) above 99.5 µM.

As for `CCc1n[nH]c(=O)c(-c2nc(-c3c[nH]c4ncccc34)cs2)c1CC`, the IC50 was above 99.5 µM.

On to `O=C(CC1(C(=O)Nc2cncc3ccccc23)CCOc2ccc(Cl)cc21)N1CCCCC1c1ccn[nH]1` (stereo not given), for which the half-maximal inhibitory concentration (IC50) is 0.616 µM.

As to `Nc1nn(C(=O)Cc2cccc(Cl)c2)c2cccnc12`, the IC50 is above 99.5 µM.

With `CN(C)S(=O)(=O)N1CCc2ccc(Cl)cc2C1C(=O)Nc1cncc2ccccc12` (stereo not given), the IC50 turned out to be 1.97 µM.

As for `CNC(=O)CN1CC(C(=O)Nc2cncc3cccc(Cl)c23)c2cc(Cl)ccc2C1=O` (stereo not given), the IC50 came out at 0.0917 µM. Against the preceding molecule, the IC50 is about 21-fold lower.

`CC1NC(=O)c2ccc(Cl)cc2C1C(=O)Nc1cncc2ccc(S(C)(=O)=O)cc12` (stereo not given): the IC50 was 1.99 µM.

`CNC(=O)CN1Cc2ccc(Cl)cc2C2(CCN(c3cncc4cccc(Cl)c34)C2=O)C1` (stereo not given) showed an IC50 of 3.28 µM.

`CC(C)(C)c1ccc(N(C(=O)c2c[nH]nn2)C(C(=O)NCCc2cccc(F)c2)c2cccnc2)cc1` (stereo not given) displayed an IC50 of 1.17 µM.

`C=CC(=O)N(c1ccc(C(F)(F)F)cc1)C(C(=O)NCCc1cccc(F)c1)c1cncc(C#N)c1` (stereo not given) showed a 50% inhibitory concentration (IC50) of 11.1 µM. Compared with the last molecule, the IC50 is about 9.5-fold higher.

Molecule `COc1ncc(Nc2cc(Cl)cc(CC(=O)Nc3cncc4ccccc34)c2)cc1Br` had an IC50 of 1.74 µM.

The molecule `O=C(Cc1cccc(Cl)c1)Nc1cnccc1-c1ccccc1` displayed a half-inhibitory concentration (IC50) of 40.9 µM.

Turning to `O=C1CCN(S(=O)(=O)c2cccs2)CC1`, the IC50 is above 99.5 µM.

`Cc1ccccc1CC(=O)Nc1cncc2ccccc12` showed an IC50 of 29.5 µM.

In the case of `C=CC(=O)Nc1ccc(O)c(C(=O)NC[C@@H](O)c2ccc3ccccc3c2)c1` (stereo in doubt), the IC50 was above 99.5 µM.

`O=C(NCCc1cccc(F)c1)C(c1cccnc1)N(C(=O)c1cnc[nH]1)c1ccc(Cn2cccn2)cc1` (stereo not given): the IC50 came out at 35.5 µM.

In turn, `O=C(c1ccnn1C1CC1)N1Cc2ccc(Cl)cc2C2(CCN(c3cncc4ccccc34)C2=O)C1` (stereo not given) yielded an IC50 of 0.163 µM.

In turn, `COc1cncc(C(C(=O)NCCc2cccc(F)c2)N(C(=O)c2ccco2)c2ccc(C(C)(C)C)cc2)c1C` (stereo not given) displayed an IC50 above 99.5 µM.

`Cc1nc(C(=O)N(c2ccc(C(C)(C)C)cc2)C(C(=O)NCCc2cccc(F)c2)c2cccnc2)nn1-c1nnc[nH]1` (stereo not given) had an IC50 above 99.5 µM.

Take `CC(C)(COP(=O)(O)OP(=O)(O)OC[C@H]1O[C@@H](n2cnc3c(N)ncnc32)[C@H](O)[C@@H]1OP(=O)(O)O)[C@@H](O)C(=O)NCCC(=O)NCCSC(=O)CCC(=O)O` (stereo in doubt): the IC50 is above 99 µM.

Consider `O=C(NCCc1cccc(F)c1)C(c1cccnc1)N(C(=O)c1cnc[nH]1)c1ccc2ncsc2c1` (stereo not given), for which the IC50 is above 99 µM.

`Cc1ccncc1NC(=O)CN1CCC(C)CC1` came in with an IC50 of 49.2 µM.

As to `O=C(Nc1cncc2[nH]c(=O)[nH]c12)C1CCOc2ccc(Cl)cc21` (stereo not given), the IC50 is 62.8 µM.

Consider `O=C(Nc1cncc2ccccc12)C1CCN(Cc2ccccc2)c2ccc(Cl)cc21` (stereo not given), for which the concentration for half-maximal inhibition (IC50) came out at 1.06 µM.

`Cc1cc(Nc2ccc3nc(C)sc3c2)n2ncnc2n1`: the IC50 was above 99.5 µM.

`O=C1N(Cc2cccc(Cl)c2)CCN1c1nccc2n[nH]cc12` had an IC50 of 4.56 µM. This counts as single-digit micromolar.
